Reference: the supplement of paper PMC10627819

Assays:
[1] = tested on: B. subtilis 168; assay: fitness (endpoint OD595 vs no drug) (fraction); higher = more growth
Method in brief: (§1)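 Fitness was defined as the optical density at the transition into stationary phase relative to the robust mean of no-drug control wells. Values were capped at 1. Cultures were started at OD595 0.01 in 384-well plates (30 µl, or 55 µl for S. pneumoniae) in TSB, LB Lennox or CY at 37 °C. OD595 was recorded every 30 min over 14 h, with the first reading subtracted as background.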

[2] = tested on: S. pneumoniae D39V; assay: as above
Method in brief: as §1

[3] = tested on: B. subtilis 168; assay: Bliss interaction score (quartile over a dose matrix) (fitness difference); higher = more antagonism (negative = synergy)
Method in brief: (§2)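 Fitness was derived from optical density at entry into stationary phase, divided by the robust mean of the no-drug wells on the same plate. That reading was taken as OD595, and the ratio was capped at 1. Single-drug fitness was inferred from the combination data. The Bliss score, observed fitness minus the expected product of single-drug fitness, was summarised as quartiles over technical, biological and donor/recipient replicates.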

[4] = tested on: S. aureus DSM 20231; assay: as above
Method in brief: as §2

[5] = tested on: S. aureus Newman; assay: as above
Method in brief: as §2

[6] = tested on: S. pneumoniae D39V; assay: as above
Method in brief: as §2
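Wherever Bliss interaction score (quartile over a dose matrix) is given: first quartile when negative (synergy) and third quartile when positive (antagonism).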

CN(C)C(=O)C(CCN1CCC(O)(c2ccc(Cl)cc2)CC1)(c1ccccc1)c1ccccc1 [Loperamide] + Cc1cc(NS(=O)(=O)c2ccc(N)cc2)no1 [Sulfamethoxazol]
fitness, one replicate
Conditions	first compound 20 µg/mL	first compound 25 µg/mL	first compound 40 µg/mL	first compound 50 µg/mL	first compound 68.57 µg/mL	first compound 80 µg/mL	first compound 100 µg/mL
[1], partner 0.5 µg/mL	–	0.0806	–	0.009	–	–	0.0009
[2], partner 1 µg/mL	≥ 1	–	≥ 1	–	0.967	0.249	–
[2], partner 2 µg/mL	≥ 1	–	≥ 1	–	0.968	0.89	–
[2], partner 4 µg/mL	0.941	–	0.942	–	≥ 1	0.752	–

fitness
Conditions	partner 1 µg/mL	partner 2 µg/mL	partner 4 µg/mL
[1], first compound 25 µg/mL	–	–	0.857
[1], first compound 100 µg/mL	–	0.0238	0.156
[2], first compound 17.14 µg/mL	0.92	0.936	0.989
[2], first compound 34.28 µg/mL	0.953	0.95	0.998

Conditions	Bliss interaction score
[3]	-0.178
[4]	-0.143
[5]	0.0631
[6]	0.0594

CN(C)C(=O)C(CCN1CCC(O)(c2ccc(Cl)cc2)CC1)(c1ccccc1)c1ccccc1 [Loperamide] + Cc1ncc([N+](=O)[O-])n1CCO [Metronidazole]
Conditions	fitness
[1], first compound 25 µg/mL, partner 0.625 µg/mL	0.918
[1], first compound 25 µg/mL, partner 1.25 µg/mL	0.891
[1], first compound 25 µg/mL, partner 2.5 µg/mL	0.895
[1], first compound 100 µg/mL, partner 1.25 µg/mL	0.214
[1], first compound 100 µg/mL, partner 2.5 µg/mL	0.203
[2], first compound 17.14 µg/mL, partner 1.25 µg/mL	0.983
[2], first compound 17.14 µg/mL, partner 2.5 µg/mL	≥ 1
[2], first compound 17.14 µg/mL, partner 5 µg/mL	0.99
[2], first compound 20 µg/mL, partner 1.073 µg/mL	≥ 1
[2], first compound 20 µg/mL, partner 2.145 µg/mL	0.921
[2], first compound 20 µg/mL, partner 4.29 µg/mL	0.973
[2], first compound 34.28 µg/mL, partner 1.25 µg/mL	0.99
[2], first compound 34.28 µg/mL, partner 2.5 µg/mL	≥ 1
[2], first compound 34.28 µg/mL, partner 5 µg/mL	0.979
[2], first compound 40 µg/mL, partner 1.073 µg/mL	≥ 1
[2], first compound 40 µg/mL, partner 4.29 µg/mL	0.96
[2], first compound 80 µg/mL, partner 1.073 µg/mL	0.938
[2], first compound 80 µg/mL, partner 2.145 µg/mL	0.898
[2], first compound 80 µg/mL, partner 4.29 µg/mL	0.95

[2], first compound 68.57 µg/mL, one replicate
Conditions	fitness
partner 1.25 µg/mL	≥ 1
partner 2.5 µg/mL	0.944
partner 5 µg/mL	≥ 1

Conditions	Bliss interaction score
[3]	0.268
[4]	0.0627
[5]	0.064
[6]	0.0877

CN(C)C(=O)C(CCN1CCC(O)(c2ccc(Cl)cc2)CC1)(c1ccccc1)c1ccccc1 [Loperamide] + Cc1onc(-c2ccccc2)c1C(=O)N[C@@H]1C(=O)N2[C@@H]1SC(C)(C)[C@@H]2C(=O)O [Oxacillin]
Conditions	fitness
[1], first compound 25 µg/mL, partner 0.002 µg/mL	0.749
[1], first compound 25 µg/mL, partner 0.004 µg/mL	0.697
[1], first compound 50 µg/mL, partner 0.002 µg/mL	0.0423
[1], first compound 50 µg/mL, partner 0.004 µg/mL	0.0371
[1], first compound 50 µg/mL, partner 0.008 µg/mL	0.0519
[1], first compound 100 µg/mL, partner 0.002 µg/mL	0.0346
[1], first compound 100 µg/mL, partner 0.004 µg/mL	0.0357
[1], first compound 100 µg/mL, partner 0.008 µg/mL	0.0283
[2], first compound 17.14 µg/mL, partner 0.01 µg/mL	0.976
[2], first compound 17.14 µg/mL, partner 0.02 µg/mL	0.878
[2], first compound 20 µg/mL, partner 0.01 µg/mL	0.99
[2], first compound 20 µg/mL, partner 0.02 µg/mL	0.869
[2], first compound 20 µg/mL, partner 0.04 µg/mL	0.156
[2], first compound 34.28 µg/mL, partner 0.01 µg/mL	0.908
[2], first compound 40 µg/mL, partner 0.01 µg/mL	0.859
[2], first compound 40 µg/mL, partner 0.04 µg/mL	0.109
[2], first compound 80 µg/mL, partner 0.04 µg/mL	0.0757

fitness, one replicate
Conditions	partner 0.01 µg/mL	partner 0.02 µg/mL	partner 0.04 µg/mL	partner 0.075 µg/mL	partner 0.15 µg/mL	partner 0.3 µg/mL
[1], first compound 25 µg/mL	–	–	–	0.0507	0.0511	0.0488
[1], first compound 50 µg/mL	–	–	–	0.0519	0.0509	0.0494
[1], first compound 100 µg/mL	–	–	–	0.0598	0.0504	0.0472
[2], first compound 68.57 µg/mL	0.979	0.901	0.618	–	–	–

Conditions	Bliss interaction score
[3]	-0.0924
[4]	-0.0615
[5]	0.077
[6]	-0.33
